A short description of series [1]: Formation kinetics of Pb2+ complexes (UV-Vis / 1H NMR). It is filed as physicochemical. To be noted: for time to reach equilibrium of Pb^2+ complexation: pH = 5, equimolar ligand and metal concentrations (10^–4 M), room temperature; for Pb^2+ complex formation: below pH = 4, after 2 weeks at room temperature or prolonged heating, UV-Vis; for ability to complex Pb^2+: pH < 7, 1H NMR of metal-ligand mixtures. The procedure:
The formation kinetics of the Pb^2+ complexes was evaluated at room temperature by UV–Vis or ^1H NMR spectroscopy. A typical experiment was performed by mixing equimolar amounts of metal and ligand solutions (final concentrations: 1.0 × 10^–4 M for UV–Vis, 1.0 × 10^–3 M for ^1H NMR) in buffered media at pH = 2 (HCl 10^–2 M), pH = 3.7 (formic/formiate buffer), pH = 5 (acetic/acetate buffer), and pH = 7.4 (2-[4-(2-hydroxyethyl)piperazin-1-yl]ethanesulfonic acid, i.e., HEPES, buffer). To avoid the formation of PbCO3 (Ks = 7.4 × 10^–14), water was boiled before each measurement.
The electronic spectra were collected in the 200–800 nm range at different time points using a Cary 60 UV–Visible spectrophotometer (Agilent) equipped with a 1 cm path length quartz cell. The complexation reactions were monitored by the increase in the absorption peaks diagnostic of the Pb^2+-ligand complex formation at the characteristic wavelength (Table S2) over time. ^1H NMR spectra were recorded on a 400 MHz Bruker Avance III HD spectrometer. All data were collected […] with Topspin 3.5 using standard Bruker processing parameters with Topspin 4.1.1 software. […] Water suppression was carried out with the excitation sculpting pulse scheme.[38]

Series [2] is described as follows: Out-of-cell UV-Vis spectrophotometric titrations (stability constants, pPb). It is filed as physicochemical. The following applies: for log β, Pb^2+ + L ⇋ [PbL]: UV–Vis spectrophotometric titrations, I = 0.15 M NaNO3, T = 25 °C; for pPb = −log[Pb^2+]free / pPb* (−log of free Pb^2+ plus hydrolysis products): calculated at CPb^2+ = 10^–6 M, Cligand = 10^–5 M, pH = 7.4. The procedure: The ionic strength (I) was fixed to 0.15 M using sodium nitrate (NaNO3) as background electrolytes. All of the experiments described below were repeated at least in triplicate.
UV–Vis spectrophotometric titrations were carried out by the out-of-cell method in the pH range of 0–12 at T = 25 °C. […] A Mettler Toledo pH meter with a glass electrode was used to measure the pH. […] In highly acidic solutions (pH ≪ 2), the pH was computed from the acid concentration (pH = −logCH^+). After the pH adjustment, the vials were sealed, heated to T = 60 °C to ensure complete Pb^2+ complexation, and cooled to room temperature. The absorption spectra were recorded using the same apparatus described for the kinetic measurements (vide supra). The equilibrium was reached when no variations of the electronica spectra or the pH were detected.
All equilibrium data were processed using the least-squares fitting program PITMAP as described in our previous works.[2],[4],[28] The overall equilibrium constants refer to the general equilibria pM^m+ + qH^+ + rL^l– ⇆ MpHqLr^pm+q–rl, where M^m+ represent the metal ion and L^l– represents the deprotonated ligand, and are designated as logβ (βpqr = [MpLqHr]/[M]^p[L]^q[H]^r). The refinements of log β included the previously determined ligand protonation constants and the Pb^2+ hydrolysis products whose equilibrium constants were fixed to the literature values.[27],[39] […] The errors quoted are the standard deviations of the overall stability constants calculated by the PITMAP program.

Series [3] in a line: Concentration-dependent radiolabeling with [203Pb]Pb2+ (iTLC). To be noted: for effect of a change in reaction time on RCI: 5 min vs 1 h; for effect of a change in reaction time on RCI / radiochemical incorporation (RCI) of [^203Pb]Pb^2+ / RCI of [^203Pb]Pb^2+: pH = 7, room temperature; for RCI of [^203Pb]Pb^2+: after 5 min; for RCI of [^203Pb]Pb^2+ on heating: T = 80 °C. The procedure: Water replaced the ligands in the negative control. All of the radiolabeling for the cyclen-based derivatives was performed at room temperature and monitored at 5 min and 1 h time points whereas heating at T = 80 °C was also employed for TACD3S, TRI4S, and TE4S. All radiolabeling reactions were repeated at least in triplicate.
Radiochemical incorporation (RCI) was determined via instant thin-layer chromatography (iTLC) with silicic acid (SA)-impregnated paper TLC plates (iTLC-SA, Agilent Technologies, USA). Ethylenediamine tetraacetic acid (EDTA, 50 mM, pH = 5.5) was used as the eluent. […] The iTLC plates were analyzed on an Eckert & Ziegler AR-2000 TLC scanner, and all the data were processed with Eckert & Ziegler WinScan software.

On the set-up of series [4]: method as in PMID 33527221. The following applies: cited from earlier work.
On the set-up of series [5]: method as in PMID 35571797, doi:10.1002/ejic.200700819. To be noted: state-of-the-art ligands, computed from literature constants; cited from earlier work.
Series [6] in a line: Acid-mediated dissociation kinetics in aqueous HCl (UV-Vis). It is filed as physicochemical. To be noted: room temperature. The source says: The dissociation kinetics of the Pb^2+ complexes were studied under pseudo-first-order conditions at room temperature without control of the ionic strength by the addition of a concentrated aqueous solution of HCl (0.01 to 1 M) to aqueous solutions of the preformed complexes. The concentration of the Pb^2+ complexes after the H^+ addition was 1.0 × 10^–4 M. The dissociation reaction was followed by the decreasing intensity of the absorption band of the complexes at the characteristic wavelength (Table S2) using the same apparatus described for the formation kinetic measurements (vide supra).
The data were processed and fitted using the equation lnAt = lnA0 – ^dkobst, where At and A0 are the absorbances at time t and at the beginning of the reaction and ^dkobs is the observed dissociation rate constant. The corresponding half-life was obtained from the equation t1/2 = ln(2)/^dkobs.

The values that follow come from PMC10828988, “Tuning the Softness of the Pendant Arms and the Polyazamacrocyclic Backbone to Chelate the ^203Pb/^212Pb Theranostic Pair” (Inorganic Chemistry, 2024).

Values joined by “and” are separate entries in the source; they are usually repeats but may differ in a detail not shown here. Equal values may be shown once. Read-outs that look alike come from different tables or passages of the source. A value given as a limit tells only on which side of the number the result lay.

Take “1,4,7-tris[2-(methylsulfanyl)ethyl]-10-acetamido-1,4,7,10-tetraazacyclododecane [DO3SAm]”: the “time to reach equilibrium of Pb^2+ complexation” value (from here on “time to reach equilibrium”) in series [1] was determined as 1 h. Also, in series [2], the “log β, Pb^2+ + L ⇋ [PbL]” value was 16.8 ± 0.1. Moreover, the “pPb = −log[Pb^2+]free” value in series [2] was 14.2. In series [2], the “pPb* (−log of free Pb^2+ plus hydrolysis products)” value is recorded as 13.9. Further, the “effect of a change in reaction time on RCI” value in series [3] was “no effect”. Also, the “radiochemical incorporation (RCI) of [^203Pb]Pb^2+” value (from here on “radiochemical incorporation (RCI)”) is listed as above 90% in series [3] (ligand 10^–4 M, 1 h); above 90% in series [3] (ligand 10^–5 M, 1 h); 68 ± 4% in series [3] (ligand 10^–6 M, 1 h); 14 ± 4% in series [3] (ligand 10^–7 M, 1 h). Further, the “radiochemical incorporation of [^203Pb]Pb^2+” value in series [3] (room temperature, 5 min reaction time, chelator concentration as low as 10^–5 M) is reported as “quantitative radiochemical incorporation”.
With `CSCCN1CCNCCN(CCSC)CCN(CCSC)CC1` [DO3S, 1,4,7-tris[2-(methylsulfanyl)ethyl]-1,4,7,10-tetraazacyclododecane], in series [1], the “Pb^2+ complex formation” value is reported as “No complex formation was detected” and the “time to reach equilibrium” value is given as 6 h. Also, in series [2], the “log β, Pb^2+ + L ⇋ [PbL]” value is recorded as 14.2 ± 0.1; the “pPb = −log[Pb^2+]free” value is on record as 11.3; the “pPb* (−log of free Pb^2+ plus hydrolysis products)” value was 11.0. For the same compound, the “RCI of [^203Pb]Pb^2+” value in series [3] turned out to be 65%. Moreover, in series [3] (ligand 10^–4 M, 1 h), the “radiochemical incorporation (RCI)” value was 88 ± 1% and 88%. In addition, the “radiochemical incorporation (RCI)” value in series [3] (ligand 10^–7 M, 1 h) came out at 2 ± 1%.
Turning to `CSCCN1CCN(CCSC)CCN(CCSC)CCN(CCSC)CC1` [DO4S, 1,4,7,10-tetrakis[2-(methylsulfanyl)ethyl]-1,4,7,10-tetraazacyclododecane], in series [1], the “Pb^2+ complex formation” value was “No complex formation was detected” and the “time to reach equilibrium” value was found to be 24 h. Also, in series [1] (pH = 7.4, room temperature), the “reaction time of Pb^2+ complexation” value was determined as 1 h. Further, in series [2], the “log β, Pb^2+ + L ⇋ [PbL]” value amounted to 12.3 ± 0.1; the “pPb = −log[Pb^2+]free” value is listed as 10.2; the “pPb* (−log of free Pb^2+ plus hydrolysis products)” value is 10.0. The “RCI of [^203Pb]Pb^2+” value in series [3] was 35%. In addition, in series [3] (ligand 10^–4 M, 1 h), the “radiochemical incorporation (RCI)” value was 81 ± 10% and 81%. The “radiochemical incorporation (RCI)” value in series [3] (ligand 10^–7 M, 1 h) is recorded as 1.4 ± 0.4%.
As to `O=C(O)CN1CCN(CC(=O)O)CCN(CC(=O)O)CCN(CC(=O)O)CC1` [DOTA, 1,4,7,10-tetraazacyclododecane-1,4,7,10-tetraacetic acid], the “RCI of [^203Pb]Pb^2+” value in series [4] (ligand 10^–4 M) is given as 96 ± 1%; in series [4] (ligand 10^–5 M), 76 ± 9%; in series [4] (ligand 10^–6 M) it was 3 ± 1%; in series [4] (ligand 10^–7 M), 1.5 ± 0.2%. Besides, in series [5], the pPb is 20.
As for `CSCCN1CCCN(CCSC)CCCN(CCSC)CCC1` [TACD3S, 1,5,9-tris[2-(methylsulfanyl)ethyl]-1,5,9-triazacyclododecane], in series [1], the “ability to complex Pb^2+” value was “not be able to complex Pb^2+”. The “RCI of [^203Pb]Pb^2+ on heating” value in series [3] (ligand 10^–4 M) is given as “only vaguely improved”. Further, the “radiochemical incorporation (RCI)” value in series [3] (ligand 10^–4 M, 1 h) is reported as “no radiometal incorporation was observed”.
Turning to `NC(=O)CN1CCN(CC(N)=O)CCN(CC(N)=O)CCN(CC(N)=O)CC1` [TCMC, 1,4,7,10-tetraaza-1,4,7,10-tetra-(2-carbamoylmethyl)-cyclododecane, reference compound], the pPb in series [5] is listed as above 18. In addition, in series [3], the “effect of a change in reaction time on RCI” value is “no effect”. Also, the “radiochemical incorporation (RCI)” value in series [3] (ligand 10^–7 M, 1 h) was 41 ± 1%; in series [3] (ligand concentrations higher than 10^–6 M), “quantitative”.
On to `CSCCN1CCCN(CCSC)CCN(CCSC)CCCN(CCSC)CC1` [TE4S, 1,4,8,11-tetrakis[2-(methylsulfanyl)ethyl]-1,4,8,11-tetrazacyclotetradecane], for which, in series [1], the “ability to complex Pb^2+” value is given as “not be able to complex Pb^2+”. In addition, in series [3] (ligand 10^–4 M), the “RCI of [^203Pb]Pb^2+ on heating” value was “only vaguely improved”. Moreover, in series [3] (ligand 10^–4 M, 1 h), the “radiochemical incorporation (RCI)” value was “no radiometal incorporation was observed”.
Regarding `CSCCN1CCCN(CCSC)CCN(CCSC)CCN(CCSC)CC1` [TRI4S, 1,4,7,10-tetrakis[2-(methylsulfanyl)ethyl]-1,4,7,10-tetrazacyclotridecane], in series [1], the “ability to complex Pb^2+” value is reported as “not be able to complex Pb^2+”. In addition, in series [3] (ligand 10^–4 M), the “RCI of [^203Pb]Pb^2+ on heating” value is given as “only vaguely improved”. Besides, the “radiochemical incorporation (RCI)” value in series [3] (ligand 10^–4 M, 1 h) was “no radiometal incorporation was observed”.
On to `CSCCN1CCNCCN(CCSC)CCN(CCSC)CC1.[Pb+2]` [[Pb(DO3S)]^2+], for which the t1/2 acid-assisted dissociation is reported as 12 ± 2 min in series [6] (CHCl 0.01 M), 0.47 ± 0.09 min in series [6] (CHCl 0.1 M) and “^b (Instantaneous decomplexation during the reagent mixing time.)” in series [6] (CHCl 1.0 M). The “^dkobs acid-assisted dissociation” value in series [6] (CHCl 0.1 M) turned out to be 1.5 ± 0.3 min^–1.
